Assay results published in patent US8476302B2, “α-ketoamide derivatives useful endothelial lipase inhibitors” (Janssen Pharmaceutica N.V., priority 2010, dated 2013).
Where “and” joins values, the source holds several entries; their conditions need not be identical. Equal entries are not always repeated.

Legend:
Mouse EL = target: T1, Mouse EL (Mus musculus, UniProt Q9WVG5); assay: Endothelial Lipase Assay, cell surface lipase activity (mouse); assay type: cell-based; conditions: PLA1 substrate 10 μM, fluorescence reaction rate, several values in a cell are repeat determinations
T1 construct: host or cells: not described for mouse EL
T1 sequence (Q9WVG5 21-500): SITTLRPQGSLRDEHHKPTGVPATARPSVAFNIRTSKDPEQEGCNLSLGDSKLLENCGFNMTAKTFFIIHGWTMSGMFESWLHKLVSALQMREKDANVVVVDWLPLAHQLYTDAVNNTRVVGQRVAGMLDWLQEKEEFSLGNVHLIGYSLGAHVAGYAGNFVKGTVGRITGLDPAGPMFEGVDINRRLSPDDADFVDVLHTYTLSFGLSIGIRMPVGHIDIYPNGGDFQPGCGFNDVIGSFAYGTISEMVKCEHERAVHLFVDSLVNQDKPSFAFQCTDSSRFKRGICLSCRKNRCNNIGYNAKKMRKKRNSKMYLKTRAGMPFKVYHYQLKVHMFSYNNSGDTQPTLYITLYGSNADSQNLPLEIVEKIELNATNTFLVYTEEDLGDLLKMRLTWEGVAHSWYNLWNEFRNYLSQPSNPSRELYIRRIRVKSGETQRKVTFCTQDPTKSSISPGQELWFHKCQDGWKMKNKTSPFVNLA
Experimental: (§1) Endothelial Lipase Assay (Human/Mouse)
(§2) To assay for cell surface lipase activity, cells expressing human endothelial lipase (EL) or LPL were plated in CellBIND® 384-well plates (Corning, Lowell, Mass.) in 25 μL serum free medium at a density of 2000 cells/well. After 18-24 hours incubation at 37° C., the medium was removed and replaced with 15 μL assay buffer [Hank's Buffered Saline Solution with 25 mM HEPES pH 7.2] and 15 μL PLA1 for a final concentration of 10 μM using a Multidrop reagent dispenser. Fluorescence signal was monitored for 30 min at 37° C. on a Safire II plate reader in kinetic mode (60 cycles, kinetic interval: 30 seconds) with an excitation wavelength of 490 nm and an emission wavelength of 515 nm. Linear regression of the fluorescence intensity collected from 480 to 1500 seconds was used to calculate the reaction rate (the slope) and the slopes were used to calculate IC50 values where appropriate. The amount of BODIPY-labeled product generated was calculated at the 30 min time point as determined from standard curve analysis of purified BODIPY FL C5. In all studies using the inhibitor Ebelactone B, consistent results were obtained when it was dissolved as a stock in DMSO, immediately before use.

[1] = target: T2, human endothelial lipase (EL) (Homo sapiens, UniProt Q9Y5X9); assay: Endothelial Lipase Assay, cell surface lipase activity (human); assay type: cell-based; conditions: cells expressing human EL, PLA1 substrate 10 μM, fluorescence reaction rate; several values in a cell are repeat determinations
T2 construct: host or cells: cells expressing human endothelial lipase
T2 sequence (Q9Y5X9 21-500): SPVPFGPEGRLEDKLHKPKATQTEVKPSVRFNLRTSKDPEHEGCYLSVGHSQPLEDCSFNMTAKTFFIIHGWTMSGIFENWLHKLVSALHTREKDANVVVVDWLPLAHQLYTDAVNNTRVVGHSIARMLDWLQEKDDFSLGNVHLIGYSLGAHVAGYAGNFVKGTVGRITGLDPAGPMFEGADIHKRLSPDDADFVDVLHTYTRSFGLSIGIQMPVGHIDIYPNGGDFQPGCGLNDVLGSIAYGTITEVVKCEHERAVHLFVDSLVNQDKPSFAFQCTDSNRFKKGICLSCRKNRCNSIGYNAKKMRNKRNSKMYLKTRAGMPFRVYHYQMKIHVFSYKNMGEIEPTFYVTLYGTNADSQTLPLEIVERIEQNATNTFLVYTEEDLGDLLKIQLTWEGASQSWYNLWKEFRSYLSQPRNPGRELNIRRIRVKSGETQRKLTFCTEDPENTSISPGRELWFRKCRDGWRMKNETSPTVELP
Experimental: as §1, §2

IC50 (Mouse EL) | IC50 [1] | Compound
187 nM | 471 nM | O=C(CCCCCCc1ccccc1)C(=O)NCc1nnc(-c2ccc(OCc3cccc(F)n3)cc2)o1 [Compound 121]
2930 nM | 3610 nM | O=C(CCCCCCc1ccccc1)C(=O)NCc1nnc(-c2ccc(NCc3cccnc3)cc2)o1 [Compound 124]
281 nM | 308 nM | O=C(CCCCCCc1ccc(F)nc1)C(=O)NCc1nnc(-c2ccc(Oc3ccccc3)cc2)o1 [Compound 127]
87 nM | 129 nM | O=C(CCCCCCc1ccccc1)C(=O)NCc1nnc(-c2ccc(OCc3cccc(F)c3)cc2)s1 [Compound 128, N-((5-(4-((3-fluorobenzyl)oxy)phenyl)-1,3,4-thiadiazol-2-yl)methyl)-2-oxo-8-phenyloctanamide]
264 nM | 325 nM | O=C(CCCCCCc1ccccc1)C(=O)NCc1nnc(-c2ccc(OCc3ccccc3)cc2)s1 [Compound 129]
80 nM | 111 nM | O=C(CCCCCCc1ccccc1)C(=O)NCc1nnc(-c2ccc(Oc3ccccc3)cc2)s1 [Compound 130]
243 nM | 604 nM | O=C(CCCCCOc1cccc(Cl)c1)C(=O)NCc1nnc(-c2ccc(Oc3ccccc3)cc2)s1 [Compound 134]
37 nM | 93 nM | COC(=O)c1cccc(COc2ccc(-c3nnc(CNC(=O)C(=O)CCCCCCc4ccccc4)s3)cc2)c1 [Compound 137]
58 nM and 79 nM | 55 nM and 108 nM | O=C(CCCCCCc1ccccc1)C(=O)NCc1nnc(-c2ccc(OCc3cccnc3)cc2)s1 [Compound 138]
42 nM | 71 nM | O=C(CCCCCCc1ccccc1)C(=O)NCc1nnc(-c2ccc(OCc3ccccn3)cc2)s1 [Compound 139]
29 nM | 32 nM | O=C(CCCCCCc1ccccc1)C(=O)NCc1nnc(-c2ccc(OCc3ccncc3)cc2)s1 [Compound 140, 2-oxo-8-phenyl-N-((5-(4-(pyridin-4-ylmethoxy)phenyl)-1,3,4-thiadiazol-2-yl)methyl)octanamide]
45 nM | 101 nM | COC(=O)c1ccc(COc2ccc(-c3nnc(CNC(=O)C(=O)CCCCCCc4ccccc4)s3)cc2)o1 [Compound 141]
897 nM | 1580 nM | NC(=O)c1cncc(CCCCCCC(=O)C(=O)NCc2nnc(-c3ccc(Oc4ccccc4)cc3)o2)c1 [Compound 142]
11100 nM | 7690 nM | O=C(CCCCC=Cc1ccccc1)C(=O)NCc1nnc(-c2ccc(Oc3ccccc3)cc2)o1 [Compound 143]
249 nM | 421 nM | N#Cc1cccc(COc2ccc(-c3nnc(CNC(=O)C(=O)CCCCCCc4ccccc4)s3)cc2)c1 [Compound 144]
14700 nM | 12300 nM | O=C(CCCCCNc1ncccn1)C(=O)NCc1nnc(-c2ccccc2)o1 [Compound 148]
48 nM | 92 nM | CN(C)C(=O)c1cccc(COc2ccc(-c3nnc(CNC(=O)C(=O)CCCCCCc4ccccc4)s3)cc2)c1 [Compound 150]
207 nM and 48 nM | 115 nM and 42 nM | O=C(CCCCCCc1ccccc1)C(=O)NCc1nnc(-c2ccc(OCc3ccnc(F)c3)cc2)s1 [Compound 152]
47 nM | 36 nM | Cc1ncsc1CCCCCCC(=O)C(=O)NCc1nnc(-c2ccc(OCc3cccc(F)c3)cc2)s1 [Compound 154, N-((5-(4-((3-fluorobenzyl)oxy)phenyl)-1,3,4-thiadiazol-2-yl)methyl)-8-(4-methylthiazol-5-yl)-2-oxooctanamide]
383 nM | 397 nM | O=C(CCCCCCc1ccccc1)C(=O)NCc1nnc(-c2ccc(OCc3cc[n+]([O-])cc3)cc2)s1 [Compound 156]
1280 nM | 511 nM | CC(=O)Nc1ccc(CCCCCCC(=O)C(=O)NCc2nnc(-c3ccc(OCc4cccc(F)c4)cc3)s2)cn1 [Compound 157]
202 nM | 1340 nM | O=C(CCCCCCc1ccccc1)C(=O)NCc1nnc(-c2ccc(OCc3cccc(Br)n3)cc2)s1 [Compound 162]
217 nM | 360 nM | O=C(CCCCCCc1ccc(F)nc1)C(=O)NCc1nnc(-c2ccc(OCc3ccccn3)cc2)s1 [Compound 167]
14 nM | 16 nM | COC(=O)c1cccc(COc2ccc(-c3nnc(CNC(=O)C(=O)CCCCCCc4ccc(F)nc4)s3)cc2)c1 [Compound 170]

Further lines, the compound ahead of its results:

Compound | IC50 (Mouse EL) | IC50 [1]
O=C(CCCCCCc1cccnc1F)C(=O)NCc1nnc(-c2ccc(Oc3ccccc3)cc2)o1 [Compound 119] | 904 nM | 979 nM
O=C(CCCCCCc1cncnc1)C(=O)NCc1nnc(-c2ccc(Oc3ccccc3)cc2)o1 [Compound 120] | 973 nM | 1510 nM
CC(C)(C)OC(=O)N(Cc1cccnc1)c1ccc(-c2nnc(CNC(=O)C(=O)CCCCCCc3ccccc3)o2)cc1 [Compound 123] | 182 nM | 288 nM
CC(C)(C)OC(=O)c1cccc(COc2ccc(-c3nnc(CNC(=O)C(=O)CCCCCCc4ccccc4)o3)cc2)c1 [Compound 125] | 993 nM | 2580 nM
O=C(CCCCCCc1ccccc1)C(=O)NCc1nnc(-c2ccc(OCc3cccc(C(=O)O)c3)cc2)o1 [Compound 126] | 242 nM | 398 nM
O=C(CCCCCOc1cc(F)cc(F)c1)C(=O)NCc1nnc(-c2ccc(Oc3ccccc3)cc2)s1 [Compound 133] | 176 nM | 386 nM
O=C(CCCCCCc1ccc(C(F)(F)F)nc1)C(=O)NCc1nnc(-c2ccc(Oc3ccccc3)cc2)o1 [Compound 136] | 406 nM | 595 nM
O=C(CCCCCCc1ccccc1)C(=O)NCc1nnc(-c2ccc(OCc3ccccc3F)cc2)s1 [Compound 145] | 168 nM | 312 nM
O=C(CCCCCCc1ccccc1)C(=O)NCc1nnc(-c2ccc(OCc3cc(F)cc(F)c3)cc2)s1 [Compound 146] | 224 nM | 2320 nM
CN(C)CCNC(=O)c1ccc(-c2nnc(CNC(=O)C(=O)CCCCCCc3ccccc3)o2)cc1 [Compound 149] | 3400 nM | 4250 nM
O=C(CCCCCCc1ccccc1)C(=O)NCc1nnc(-c2ccc(OCc3cccc(F)n3)cc2)s1 [Compound 151] | 661 nM | 712 nM
O=C(CCCCCCc1ccc(F)nc1)C(=O)NCc1nnc(-c2ccc(OCc3ccncc3)cc2)s1 [Compound 159] | 174 nM | 240 nM
O=C(CCCCCCc1ccccc1)C(=O)NCc1nnc(-c2ccc(OCc3ccncc3F)cc2)s1 [Compound 161] | 37 nM | 93 nM
N#Cc1cccc(COc2ccc(-c3nnc(CNC(=O)C(=O)CCCCCCc4ccccc4)s3)cc2)n1 [Compound 163] | 236 nM | 974 nM
O=C(CCCCCCc1ccccc1)C(=O)NCc1nnc(-c2ccc(OCc3cccc(Cl)n3)cc2)s1 [Compound 164] | 232 nM | 751 nM
O=C(CCCCCCc1ccc(F)nc1)C(=O)NCc1nnc(-c2ccc(OCc3cccc(F)c3)cc2)s1 [Compound 165] | 48 nM | 48 nM
Cc1ncsc1CCCCCCC(=O)C(=O)NCc1nnc(-c2ccc(OCc3ccncc3)cc2)s1 [Compound 166] | 479 nM | 809 nM
O=C(CCCCCCc1ccc(F)nc1)C(=O)NCc1nnc(-c2ccc(OCc3ccnc(F)c3)cc2)s1 [Compound 168] | 64 nM | 107 nM
O=C(CCCCCCc1ccc(F)nc1)C(=O)NCc1nnc(-c2ccc(OCc3ccnc(Cl)c3)cc2)s1 [Compound 169] | 62 nM | 85 nM
O=C(CCCCCCc1ccccc1)C(=O)NCc1nnc(-c2ccc(OCc3ccnc(Cl)c3)cc2)s1 [Compound 173] | 17 nM | 37 nM
Cc1cc(COc2ccc(-c3nnc(CNC(=O)C(=O)CCCCCCc4ccccc4)s3)cc2)ccn1 [Compound 174] | 51 nM | 78 nM
